Data reported in publication PMC6514771, “A Stapled Peptide Mimic of the Pseudosubstrate Inhibitor PKI Inhibits Protein Kinase A” (Molecules, 2019).

How the values were obtained:
[1] = target: human PKA catalytic isoform Cβ1 (PKA-Cβ1) (Homo sapiens, UniProt P22694); assay: Fluorescence polarization (FP) direct binding; settings: FAM-labeled negative control peptide; three independent measurements with three protein preparations
[2] = target: human PKA catalytic isoform Cα (PKA-Cα) (Homo sapiens, UniProt P17612); assay: Fluorescence polarization (FP) direct binding; settings: FAM-labeled negative control peptide; three independent measurements with three protein preparations

## βA-TTY*DFI*SGRTGFFNAIHD (sidechain bridge or staple) [negative control peptide]
[1]
  binding to PKA-Cb (FP): No binding
[2]
  binding to PKA-Ca (FP): No binding
